In paper PMC11844072, “Novel 5,6-dichlorobenzimidazole derivatives as dual BRAFWT and BRAFV600E inhibitors: design, synthesis, anti-cancer activity and molecular dynamics simulations” (BMC Chemistry, 2025) one finds inhibition and GI% data, which are given here for three molecules.

Some results are limits rather than exact numbers.

Holding throughout (assay): NCI 60 single concentration growth inhibition
What all share (assay type): cell-based, human

In one assay the test system is HS 578T. To be noted: Breast cancer; for inhibition at 10 µM: Homo sapiens, read-out: GI%. The method, boiled down: (§1)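 Suspension cells such as leukaemia lines are fixed with 80% TCA added to settled cells, to 16% final, while other lines are fixed at 10% TCA. Both are then SRB-stained after 48 h of drug exposure at 37 °C.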
The subject of a further assay is SF-268. The settings on record: SF-268, CNS cancer; for inhibition at 10 µM: Homo sapiens, read-out: GI%. The method, boiled down:
as §1

Another assay has as its system M14. The settings on record: M14, Melanoma; for inhibition at 10 µM: Homo sapiens, read-out: GI%. The procedure, abridged: as §1
For another assay, the system named is A549/ATCC. The settings on record: Non-small cell lung cancer; for inhibition at 10 µM: Homo sapiens, read-out: GI%. The procedure, abridged:
as §1

The subject of another assay is MDA-MB-231/ATCC. To be noted: Breast cancer; for inhibition at 10 µM: Homo sapiens, read-out: GI%. The procedure, abridged: as §1
For another assay, the system named is SR. The settings on record: Leukemia; for inhibition at 10 µM: Homo sapiens, read-out: GI%. The procedure, abridged: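 Cells are plated and left 24 h, and a time-zero plate is fixed at drug addition. Compound is then added for 48 h, the cells are fixed in cold TCA and stained with 0.4% SRB, and bound dye is solubilised in 10 mM Tris for reading at 515 nm.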

The next assay has as its system BT-549. To be noted: BT-549, Breast cancer; for inhibition at 10 µM: Homo sapiens, read-out: GI%. The method, boiled down: as §1
A further assay relates to RXF 393. To be noted: RXF 393, Renal cancer; for inhibition at 10 µM: Homo sapiens, read-out: GI%. The procedure, abridged: as §1
Another assay has as its system 786-0. The settings on record: 786-0, Renal cancer; for inhibition at 10 µM: Homo sapiens, read-out: GI%. The procedure, abridged:
as §1

The subject of a further assay is UACC-62. To be noted: UACC-62, Melanoma; for inhibition at 10 µM: Homo sapiens, read-out: GI%. The method, boiled down:
as §1

In another assay the test system is SF-295. The settings on record: SF-295, CNS cancer; for inhibition at 10 µM: Homo sapiens, read-out: GI%. The procedure, abridged: as §1
The test system of the next assay is T-47D. To be noted: Breast cancer; for inhibition at 10 µM: Homo sapiens, T47D, read-out: GI%. The method, boiled down:
as §1

The test system of the next assay is SN12C. To be noted: Renal cancer; for inhibition at 10 µM: Homo sapiens, read-out: GI%. The procedure, abridged:
as §1

A further assay deals with SK-MEL-5. The settings on record: SK-MEL-5, Melanoma; for inhibition at 10 µM: Homo sapiens, read-out: GI%. The method, boiled down: as §1
The next assay concerns PC-3. To be noted: PC-3, Prostate cancer; for inhibition at 10 µM: Homo sapiens, read-out: GI%. The method, boiled down: as §1
A further assay relates to UACC-257. The settings on record: UACC-257, Melanoma; for inhibition at 10 µM: Homo sapiens, read-out: GI%. The procedure, abridged: as §1
In the next assay the test system is HOP-62. The settings on record: HOP-62, Non-small cell lung cancer; for inhibition at 10 µM: Homo sapiens, read-out: GI%. The procedure, abridged: as §1
For a further assay, the system named is OVCAR-5. The settings on record: OVCAR-5, Ovarian cancer; for inhibition at 10 µM: Homo sapiens, read-out: GI%. The method, boiled down: as §1
The test system of the next assay is ACHN. To be noted: Renal cancer; for inhibition at 10 µM: Homo sapiens, read-out: GI%. The procedure, abridged: as §1
A further assay has as its system MCF7. To be noted: MCF7, Breast cancer; for inhibition at 10 µM: Homo sapiens, read-out: GI%. The method, boiled down: as §1
Another assay concerns SK-MEL-2. To be noted: SK-MEL-2, Melanoma; for inhibition at 10 µM: Homo sapiens, read-out: GI%. The procedure, abridged: as §1
A further assay has as its system OVCAR-8. The settings on record: OVCAR-8, Ovarian cancer; for inhibition at 10 µM: Homo sapiens, read-out: GI%. The procedure, abridged:
as §1

The test system of the next assay is EKVX. To be noted: Non-small cell lung cancer; for inhibition at 10 µM: Homo sapiens, read-out: GI%. The procedure, abridged: as §1

As for `COC(=O)COc1ccc(C=NNC(=O)Cn2c(-c3ccc(OC)cc3)nc3cc(Cl)c(Cl)cc32)cc1OC` [Compound 10p, Methyl-2-(4-((2-(2-(5,6-dichloro-2-(4-methoxyphenyl)-1H-benzo[d]imidazol-1-yl)acetyl)hydrazono)methyl)-2-methoxyphenoxy)acetate], the inhibition at 10 µM with HS 578T was 118%; in the assay with SF-268, less than 5%; in the assay with M14, less than 5%; in the assay with A549/ATCC, less than 5%; in the assay with MDA-MB-231/ATCC, 64.6%; in the assay on SR it was 92.8%. Also, the inhibition at 10 µM in the assay with BT-549 is 15.1%; in the assay on RXF 393, 186%; in the assay on 786-0 it was 162%; with UACC-62, 36.5%; in the assay with SF-295, less than 5%; in the assay on T-47D, 81.1%. Also, the inhibition at 10 µM with SN12C is 99.5%; in the assay with SK-MEL-5 it was 6.06%; in the assay on PC-3, 79.8%; in the assay on UACC-257, 22.7%; in the assay with HOP-62 it was less than 5%; in the assay on OVCAR-5 it was less than 5%. The inhibition at 10 µM with ACHN was 95.2%; with MCF7 it was 25.8%; in the assay on SK-MEL-2, 24.1%; with OVCAR-8, 143%; with EKVX it was 18.9%.

As to “2-(5-((2-(2-(5,6-Dichloro-2-(4-methoxyphenyl)-1H-benzo[d]imidazol-1-yl)acetyl)hydrazono)methyl)-2-methoxyphenoxy)acetic acid [Compound 10n]”, the GI% in the assay on HS 578T (10 μM) is given as 6.21%; with SF-268 (10 μM), “– (GI% < 5%)”; in the assay on M14 (10 μM) it was “– (GI% < 5%)”; in the assay on A549/ATCC (10 μM), “– (GI% < 5%)”; in the assay on MDA-MB-231/ATCC (10 μM) it was 11.50%; in the assay on SR (10 μM), 9.65%. Further, the GI% entry is listed as “– (GI% < 5%)” with BT-549 (10 μM); “– (GI% < 5%)” with RXF 393 (10 μM); “– (GI% < 5%)” in the assay with 786-0 (10 μM); 9.71% in the assay on UACC-62 (10 μM); “– (GI% < 5%)” with SF-295 (10 μM); “– (GI% < 5%)” in the assay on T-47D (10 μM). For the same molecule, the GI% is given as 5.05% in the assay on SN12C (10 μM); “– (GI% < 5%)” with SK-MEL-5 (10 μM); 10.81% in the assay with PC-3 (10 μM); “– (GI% < 5%)” in the assay with UACC-257 (10 μM); “– (GI% < 5%)” in the assay with HOP-62 (10 μM); “– (GI% < 5%)” in the assay with OVCAR-5 (10 μM). Further, the GI% result in the assay on ACHN (10 μM) is reported as “– (GI% < 5%)”; with MCF7 (10 μM), 14.21%; in the assay on SK-MEL-2 (10 μM), “– (GI% < 5%)”; in the assay on OVCAR-8 (10 μM), “– (GI% < 5%)”; with EKVX (10 μM), “– (GI% < 5%)”.

With `COC(=O)COc1cc(C=NNC(=O)Cn2c(-c3ccc(OC)cc3)nc3cc(Cl)c(Cl)cc32)ccc1OC` [Compound 10o, Methyl-2-(5-((2-(2-(5,6-dichloro-2-(4-methoxyphenyl)-1H-benzo[d]imidazol-1-yl)acetyl)hydrazono)methyl)-2-methoxyphenoxy)acetate], the inhibition at 10 µM in the assay on HS 578T turned out to be 128%; with SF-268, 18.6%; with M14, 36.5%; in the assay with A549/ATCC, 8.33%; in the assay with MDA-MB-231/ATCC, 90.1%; in the assay on SR, 90.9%. Moreover, the inhibition at 10 µM was less than 5% in the assay with BT-549; 129% in the assay with RXF 393; 11.9% in the assay with 786-0; 24.3% in the assay on UACC-62; less than 5% in the assay on SF-295; 106% in the assay with T-47D. Moreover, the inhibition at 10 µM in the assay on SN12C is 97.2%; in the assay with SK-MEL-5, 6.53%; with PC-3, 51.2%; in the assay with UACC-257, 41.4%; with HOP-62, less than 5%; in the assay with OVCAR-5, less than 5%. Further, the inhibition at 10 µM with ACHN was 71.3%; in the assay with MCF7, 33.4%; in the assay on SK-MEL-2 it was 26.6%; in the assay on OVCAR-8, 69.8%; in the assay with EKVX, 14%.
